Data published in patent US6664277B1, “Prenylation inhibitors containing dimethylcyclobutane and methods of their synthesis and use” (PPD Discovery, Inc., priority 2002, dated 2003).

Target: T1, GGPTase I (Rattus norvegicus, UniProt P53610+Q04631)
T1 construct: made in house; host or cells: Sf9 insect cells (baculovirus co-infection)
Test: GGPTase I inhibition assay ([3H]GGPP transfer to Ras-CVLL)
Format: biochemical
Conditions: Table I; test compound 100 nM; mixtures of regioisomers and/or enantiomers unless indicated
Experimental: GGPTase-I activity was determined by the method of Casey et al, Proc. Natl. Acad. Sci. USA, 1991, 88, 8631-8635. This method measures the transfer of isoprenoid from ^3H-geranylgeranyl diphosphate (GGPP) into a Ras protein with a C-terminal leucine-for-serine substitution (designated as Ras-CVLL).
Assays for the inhibition studies of GGPTase I were performed in a manner analogous to that described by Casey, et al., Proc. Natl. Acad. Sci. USA, 1991, 88, 8631-8635, with the following modifications. For those assays, the reaction mixtures contained the following components in 50 μl:0.25 μM [^3H]GGPP (sp. act. 8-10 Ci/mmol), 2.5 μM Ras-CVLL, 50 mM Tris-Cl, pH 7.7, 20 mM KCl, 5 mM MgCl2, 5 μM ZnCl2, 1 mM DTT, 0.5 mM Zwittergent 3-14 and the desired amount of the compound to be tested for inhibitory potential. After pre-equilibrating the assay mixture at 30° C. in the absence of the enzyme, the reaction was initiated by addition of the enzyme (75 ng). Following an about 10 minute incubation at about 30° C., the reactions were terminated by addition of about 0.5 ml of about 4% SDS. About 40 mg of bovine brain membranes was added to the samples to enhance recovery during precipitation. Product was precipitated by addition of about 0.5 ml of 30% TCA, allowed to stand at room temperature for about 15 minutes, and processed by filtration through glass-fiber filters as described previously (Reiss et al., Methods: Companion to Methods in Enzymology, 1991, 1, 241-245). Reactions were never allowed to proceed to more than 10% completion based on the limiting substrate. Assays for the inhibition studies of FPTase were performed analogous the GGPTase I inhibition studies, except [^3H]GGPP was replaced with 0.25 μM of [^3H]FPP (sp. act. 8-10 ci/mmol) and Ras-CVLL was replaced with 1 μM H-Ras.
Using the method described above, the GGPTase I inhibitory activities of some of the compounds of the present invention were evaluated. The concentration of the test compound used was 100 nM. Mixtures of regioisomers and/or enantiomers are used unless indicated otherwise (for example, the position of substituents on the dimethyl cyclobutane moiety).

T1 sequence (P53610 whole entry, one chain of several): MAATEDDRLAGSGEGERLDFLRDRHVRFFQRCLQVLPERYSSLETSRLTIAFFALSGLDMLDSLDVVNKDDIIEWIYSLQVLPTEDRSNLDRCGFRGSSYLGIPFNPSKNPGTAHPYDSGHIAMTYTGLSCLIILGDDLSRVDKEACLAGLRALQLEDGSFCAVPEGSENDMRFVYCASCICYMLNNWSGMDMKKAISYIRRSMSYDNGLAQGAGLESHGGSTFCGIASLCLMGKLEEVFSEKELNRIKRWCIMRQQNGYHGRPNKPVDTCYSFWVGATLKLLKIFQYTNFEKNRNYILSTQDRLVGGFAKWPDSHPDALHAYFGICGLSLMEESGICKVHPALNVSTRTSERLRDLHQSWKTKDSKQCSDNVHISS

Row | Inhibition | Structure (SMILES)
1 | Yes | CN1CC[C@H](c2ccccc2)[C@H]1C(N)=O
2 | Yes | CN1Cc2ccccc2C[C@H]1C(N)=O

Same assay, conditions: Table II; test compound 100 nM; mixtures of regioisomers and/or enantiomers unless indicated

Row | Inhibition | Structure (SMILES)
3 | yes | CC1(C)[C@@H](CC(=O)NC(CO)Cc2ccccc2)C[C@@H]1c1cc(-c2cccnc2)nn1-c1ccc(Cl)c(Cl)c1 (stereo partly shown) [CH2OH]
4 | yes | CC1(C)[C@@H](CC(=O)NC(Cc2ccccc2)C(=O)OCc2ccccc2)C[C@@H]1c1cc(-c2cccnc2)nn1-c1ccc(Cl)c(Cl)c1 (stereo partly shown) [CO2Bn]
5 | yes | CC1(C)[C@@H](CC(=O)NC(Cc2ccccc2)C(=O)O)C[C@@H]1c1cc(-c2cccnc2)nn1-c1ccc(Cl)c(Cl)c1 (stereo partly shown) [CO2H]
6 | yes | COC(=O)C(Cc1ccccc1)NC(=O)C[C@H]1C[C@H](c2cc(-c3cccnc3)nn2-c2ccc(Cl)c(Cl)c2)C1(C)C (stereo partly shown) [CO2Me]
7 | yes | CC1(C)[C@@H](CC(=O)NC(Cc2ccccc2)C(N)=O)C[C@@H]1c1cc(-c2cccnc2)nn1-c1ccc(Cl)c(Cl)c1 (stereo partly shown) [CONH2]
8 | yes | CNC(=O)C(Cc1ccccc1)NC(=O)C[C@H]1C[C@H](c2cc(-c3cccnc3)nn2-c2ccc(Cl)c(Cl)c2)C1(C)C (stereo partly shown) [CONHMe]
9 | yes | CC1(C)[C@@H](CC(=O)NCCc2ccccc2)C[C@@H]1c1cc(-c2cccnc2)nn1-c1ccc(Cl)c(Cl)c1 [H]

Same assay, conditions: Table V; test compound 100 nM; mixtures of regioisomers and/or enantiomers unless indicated

Row | Inhibition | Structure (SMILES)
10 | yes | CC1(C)[C@@H](CC(=O)NC(Cc2ccccc2)C(N)=O)C[C@@H]1c1cc(-c2cccnc2)nn1-c1ccc(Cl)c(Cl)c1 (stereo partly shown) [Bn]
11 | yes | CC1(C)[C@@H](CC(=O)NC(CO)Cc2ccccc2)C[C@@H]1c1cc(-c2cccnc2)nn1-c1ccc(Cl)c(Cl)c1 (stereo partly shown) [CH2OH]
12 | yes | CC1(C)[C@@H](CC(=O)NCCc2ccccc2)C[C@@H]1c1cc(-c2cccnc2)nn1-c1ccc(Cl)c(Cl)c1 [H]
13 | yes | CC1(C)[C@@H](CC(=O)NC(C(N)=O)c2ccccc2)C[C@@H]1c1cc(-c2cccnc2)nn1-c1ccc(Cl)c(Cl)c1 (stereo partly shown) [Ph]

Same assay, conditions: Table VI; test compound 100 nM; mixtures of regioisomers and/or enantiomers unless indicated

Row | Inhibition | Structure (SMILES)
14 | yes | CC1(C)[C@@H](CNC(=O)[C@@H](N)Cc2ccccc2)C[C@H]1c1cc(-c2cccnc2)nn1-c1ccc(Cl)c(Cl)c1
15 | yes | CN(C(=O)C[C@H]1C[C@H](c2cc(-c3cccnc3)nn2-c2ccc(Cl)c(Cl)c2)C1(C)C)C(Cc1ccccc1)C(N)=O (stereo partly shown)
16 | no | CC1(C)[C@@H](CCNC(Cc2ccccc2)C(N)=O)C[C@H]1c1cc(-c2cccnc2)nn1-c1ccc(Cl)c(Cl)c1 (stereo partly shown)
